Measurements as given in patent publication US11254686B1 (Corvus Pharmaceuticals, Inc., priority 2017, dated 2022).
pIC50: −log10 of the molar value. Where two headings read alike, the source gives them in different places.

Assays:
[1] = target: adenosine A2A receptor (Homo sapiens (Human), UniProt P29274); assay: Adenosine receptor activity assay (Table 1), A2A activity; format: biochemical; conditions: read-out: Ave A2A cAMP IC50
[2] = target: T1, adenosine A1 receptor (Homo sapiens (Human), UniProt P30542); assay: Adenosine receptor activity assay (Table 1), A1 cAMP; format: cell-based
[3] = target: adenosine A2B receptor (Homo sapiens (Human), UniProt P29275); assay: Adenosine receptor activity assay (Table 1), A2B activity; format: biochemical; conditions: for pIC50: read-out: Ave A2B cAMP IC50
[4] = target: T2, adenosine A3 receptor (Homo sapiens (Human), UniProt P0DMS8); assay: Adenosine receptor activity assay (Table 1), A3 cAMP; format: cell-based
[5] = target: T2, adenosine A3 receptor; assay: as above; format: biochemical
Protocol: (§1) Table 1. Compounds (e.g., Adenosine Receptor modulators) and activity assay results. The legend is as follows: A=<10 nM; B=10-50 nM; C=50-100 nM; D=100-500; and E=>500 nM. The ratio corresponds to the A2A activity to the A2B activity; or A2A/A2B.

[6] = target: T1, adenosine A1 receptor; assay: Adenosine receptor activity assay (Table 1), A1 cAMP; format: biochemical
Protocol: as §1

[7] = A2A activity to A2B activity (A2A/A2B)
[8] = A2A activity to the A2B activity, A2A/A2B

Chain of adenosine A2A receptor (P29274 whole entry): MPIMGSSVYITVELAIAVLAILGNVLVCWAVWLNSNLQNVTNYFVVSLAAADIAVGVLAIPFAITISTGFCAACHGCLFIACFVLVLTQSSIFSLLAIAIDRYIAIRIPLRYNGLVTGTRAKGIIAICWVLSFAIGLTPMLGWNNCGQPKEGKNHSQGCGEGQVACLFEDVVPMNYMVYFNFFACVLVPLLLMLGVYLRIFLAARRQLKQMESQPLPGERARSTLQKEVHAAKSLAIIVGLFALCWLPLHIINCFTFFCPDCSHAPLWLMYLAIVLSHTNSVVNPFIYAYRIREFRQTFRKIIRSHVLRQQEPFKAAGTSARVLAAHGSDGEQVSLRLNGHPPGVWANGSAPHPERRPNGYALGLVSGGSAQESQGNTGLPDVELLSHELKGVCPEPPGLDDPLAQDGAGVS
T2 sequence (P0DMS8 whole entry): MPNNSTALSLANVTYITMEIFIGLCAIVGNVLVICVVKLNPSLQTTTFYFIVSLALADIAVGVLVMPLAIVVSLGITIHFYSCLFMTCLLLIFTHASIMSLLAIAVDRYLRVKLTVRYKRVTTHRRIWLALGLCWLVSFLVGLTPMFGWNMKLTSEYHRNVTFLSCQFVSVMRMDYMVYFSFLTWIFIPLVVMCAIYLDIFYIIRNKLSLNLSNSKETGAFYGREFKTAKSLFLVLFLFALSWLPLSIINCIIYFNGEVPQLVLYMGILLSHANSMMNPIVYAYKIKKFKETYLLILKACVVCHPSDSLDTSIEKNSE
T1 sequence (P30542 whole entry): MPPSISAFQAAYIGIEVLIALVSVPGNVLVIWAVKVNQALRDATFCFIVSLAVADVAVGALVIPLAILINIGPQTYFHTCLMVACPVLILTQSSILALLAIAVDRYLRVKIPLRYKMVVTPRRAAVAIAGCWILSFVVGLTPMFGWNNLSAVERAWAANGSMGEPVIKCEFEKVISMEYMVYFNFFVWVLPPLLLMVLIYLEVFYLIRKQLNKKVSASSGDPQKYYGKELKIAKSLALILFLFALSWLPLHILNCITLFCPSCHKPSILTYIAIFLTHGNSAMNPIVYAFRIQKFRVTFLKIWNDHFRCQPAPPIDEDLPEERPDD
Chain of adenosine A2B receptor (P29275 whole entry): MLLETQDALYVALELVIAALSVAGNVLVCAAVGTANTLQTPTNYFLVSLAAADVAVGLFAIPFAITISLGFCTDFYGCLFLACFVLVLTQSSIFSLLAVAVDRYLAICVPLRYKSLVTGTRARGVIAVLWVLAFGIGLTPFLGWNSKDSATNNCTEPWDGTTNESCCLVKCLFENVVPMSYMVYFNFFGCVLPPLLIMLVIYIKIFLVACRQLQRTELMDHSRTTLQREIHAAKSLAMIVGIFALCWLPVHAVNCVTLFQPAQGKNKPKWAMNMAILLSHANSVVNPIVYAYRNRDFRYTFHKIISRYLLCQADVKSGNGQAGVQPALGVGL

Molecule | pIC50 [1] | pIC50 [2] | Ratio [3, 7] | pIC50 [3] | pIC50 [4] | Ratio [3, 8] | pIC50 [5] | pIC50 [6]
CC(C)NC(=O)c1nc(N[C@@H](C)c2ccccn2)nc2ccsc12 [Example Z199, (S)—N-Isopropyl-2-((1-(pyridin-2-yl)ethyl)amino)thieno[3,2-d]pyrimidine-4-carboxamide] | 7.30 to 8.00 | < 6.30 | 3.51 | > 8.00 | 7.00 to 7.30 | – | – | –
C[C@H](Nc1nc(C(=O)NC(C)(C)C)c2sccc2n1)c1ccccn1 [Example Z201, (S)—N-(tert-Butyl)-2-((1-(pyridin-2-yl)ethyl)amino)thieno[3,2-d]pyrimidine-4-carboxamide] | 7.00 to 7.30 | 7.00 to 7.30 | 2.22 | 7.30 to 8.00 | 7.00 to 7.30 | – | – | –
CNc1cc2nc(N[C@@H](C)c3ccccn3)nc(C(=O)N3CC(O)C3)c2s1 [Example Z221, (S)-(3-Hydroxyazetidin-1-yl)(6-(methylamino)-2-((1-(pyridin-2-yl)ethyl)amino)thieno[3,2-d]pyrimidin-4-yl)methanone] | < 6.30 | < 6.30 | 52.95 | 7.30 to 8.00 | 7.00 to 7.30 | – | – | –
CNc1cc2nc(N[C@@H](C)c3ccccn3)nc(C(=O)NCCO)c2s1 [Example Z222, (S)—N-(2-Hydroxyethyl)-6-(methylamino)-2-((1-(pyridin-2-yl)ethyl)amino)thieno[3,2-d]pyrimidine-4-carboxamide] | < 6.30 | < 6.30 | 44.93 | 7.30 to 8.00 | < 6.30 | – | – | –
C[C@H](Nc1nc(C(=O)N2CCCC2)c2sc(N)cc2n1)c1cncc(F)c1 [Example Z223, (S)-(6-Amino-2-((1-(5-fluoropyridin-3-yl)ethyl)amino)thieno[3,2-d]pyrimidin-4-yl)(pyrrolidin-1-yl)methanone] | 6.30 to 7.00 | < 6.30 | 158.10 | > 8.00 | < 6.30 | – | – | –
C[C@H](Nc1nc(C(=O)NCC(F)(F)F)c2sccc2n1)c1ccccn1 [Example Z226, (S)-2-((1-(Pyridin-2-yl)ethyl)amino)-N-(2,2,2-trifluoroethyl)thieno[3,2-d]pyrimidine-4-carboxamide] | 7.00 to 7.30 | < 6.30 | 11.22 | > 8.00 | < 6.30 | – | – | –
C[C@H](Nc1nc(C(=O)N2CCC2)c2sccc2n1)c1cncc(Cl)c1 [Example Z232, (S)-Azetidin-1-yl(2-((1-(5-chloropyridin-3-yl)ethyl)amino)thieno[3,2-d]pyrimidin-4-yl)methanone] | 6.30 to 7.00 | < 6.30 | 60.88 | > 8.00 | < 6.30 | – | – | –
COC1CN(C(=O)c2nc(N[C@@H](C)c3cncc(Cl)c3)nc3ccsc23)C1 [Example Z233, (S)-(2-((1-(5-Chloropyridin-3-yl)ethyl)amino)thieno[3,2-d]pyrimidin-4-yl)(3-methoxyazetidin-1-yl)methanone] | 6.30 to 7.00 | < 6.30 | 51.97 | > 8.00 | < 6.30 | – | – | –
C[C@H](Nc1nc(C(=O)N2CC[C@@H](F)C2)c2sccc2n1)c1cncc(F)c1 [Example Z234, (2-(((S)-1-(5-Fluoropyridin-3-yl)ethyl)amino)thieno[3,2-d]pyrimidin-4-yl)((R)-3-fluoropyrrolidin-1-yl)methanone] | 6.30 to 7.00 | < 6.30 | 58.04 | > 8.00 | < 6.30 | – | – | –
C[C@H](Nc1nc(C(=O)N2CC[C@H](O)C2)c2sccc2n1)c1cncc(Cl)c1 [Example Z236, (2-(((S)-1-(5-Chloropyridin-3-yl)ethyl)amino)thieno[3,2-d]pyrimidin-4-yl)((S)-3-hydroxypyrrolidin-1-yl)methanone] | < 6.30 | < 6.30 | 57.61 | 7.30 to 8.00 | < 6.30 | – | – | –
C[C@H](Nc1nc(C(=O)N2CC[C@@H](O)C2)c2sccc2n1)c1cncc(Cl)c1 [Example Z237, (2-(((S)-1-(5-Chloropyridin-3-yl)ethyl)amino)thieno[3,2-d]pyrimidin-4-yl)((R)-3-hydroxypyrrolidin-1-yl)methanone] | < 6.30 | < 6.30 | 65.87 | 7.30 to 8.00 | < 6.30 | – | – | –
C[C@H](Nc1nc(C(=O)NCC(C)(C)O)c2sccc2n1)c1cncc(F)c1 [Example Z238, (S)-2-((1-(5-Fluoropyridin-3-yl)ethyl)amino)-N-(2-hydroxy-2-methylpropyl)thieno[3,2-d]pyrimidine-4-carboxamide] | 6.30 to 7.00 | < 6.30 | 22.98 | > 8.00 | < 6.30 | – | – | –
CC(C)(C)OC(=O)N[C@@H]1CCN(C(=O)c2nc(NCc3cncc(F)c3)nc3ccsc23)C1 [Example Z239, tert-Butyl (R)-(1-(2-(((5-fluoropyridin-3-yl)methyl)amino)thieno[3,2-d]pyrimidine-4-carbonyl)pyrrolidin-3-yl)carbamate] | 6.30 to 7.00 | < 6.30 | 14.97 | > 8.00 | 7.30 to 8.00 | – | – | –
CNc1cc2nc(N[C@@H](C)c3cccnc3)nc(C(=O)N3CC(O)C3)c2s1 [Example Z240, (S)-(3-Hydroxyazetidin-1-yl)(6-(methylamino)-2-((1-(pyridin-3-yl)ethyl)amino)thieno[3,2-d]pyrimidin-4-yl)methanone] | < 6.30 | < 6.30 | 23.69 | 7.30 to 8.00 | < 6.30 | – | – | –
C[C@H](Nc1nc(C(=O)N2CCC2)c2sc(N)cc2n1)c1cncc(F)c1 [Example Z241, (S)-(6-Amino-2-((1-(5-fluoropyridin-3-yl)ethyl)amino)thieno[3,2-d]pyrimidin-4-yl)(azetidin-1-yl)methanone] | 7.00 to 7.30 | < 6.30 | 78.77 | > 8.00 | < 6.30 | – | – | –
C[C@H](Nc1nc(C(=O)N2CC[C@@H](O)C2)c2sc(N)cc2n1)c1cncc(F)c1 [Example Z242, (6-Amino-2-(((S)-1-(5-fluoropyridin-3-yl)ethyl)amino)thieno[3,2-d]pyrimidin-4-yl)((R)-3-hydroxypyrrolidin-1-yl)methanone] | 6.30 to 7.00 | < 6.30 | 45.21 | > 8.00 | < 6.30 | – | – | –
CNc1cc2nc(N[C@@H](C)c3cncc(F)c3)nc(C(=O)N3CC(OC)C3)c2s1 [Example Z243, (S)-(2-((1-(5-Fluoropyridin-3-yl)ethyl)amino)-6-(methylamino)thieno[3,2-d]pyrimidin-4-yl)(3-methoxyazetidin-1-yl)methanone] | 6.30 to 7.00 | < 6.30 | 112.45 | > 8.00 | 7.00 to 7.30 | – | – | –
Cc1cc2nc(N[C@@H](C)c3cncc(F)c3)nc(C(=O)N3CCN(C(=O)NC(C)C)C3)c2s1 [Example Z593, (S)-3-(2-((1-(5-Fluoropyridin-3-yl)ethyl)amino)-6-methylthieno[3,2-d]pyrimidine-4-carbonyl)-N-isopropylimidazolidine-1-carboxamide] | 7.00 to 7.30 | – | – | 7.30 to 8.00 | – | 3.25 | < 6.30 | < 6.30
C[C@H](Nc1nc(C(=O)N2CC(NC(=O)C(C)(C)C)C2)c2sccc2n1)c1cncc(F)c1 [Example Z594, (S)—N-(1-(2-((1-(5-Fluoropyridin-3-yl)ethyl)amino)thieno[3,2-d]pyrimidine-4-carbonyl)azetidin-3-yl)pivalamide] | > 8.00 | – | – | 7.30 to 8.00 | – | 0.15 | 7.00 to 7.30 | < 6.30
Cc1cc2nc(N[C@@H](C)c3cncc(F)c3)nc(C(=O)N3CC[C@H]3C)c2s1 [Example Z595, (2-(((S)-1-(5-Fluoropyridin-3-yl)ethyl)amino)-6-methylthieno[3,2-d]pyrimidin-4-yl)((R)-2-methylazetidin-1-yl)methanone] | 7.30 to 8.00 | – | – | > 8.00 | – | 9.45 | > 8.00 | > 8.00
Cc1cc2nc(N[C@@H](C)c3cncc(F)c3)nc(C(=O)N3CC[C@@H]3C)c2s1 [Example Z596] | 7.30 to 8.00 | – | – | > 8.00 | – | 10.34 | > 8.00 | > 8.00
Cc1cc2nc(N[C@@H](C)c3cncc(F)c3)nc(C(=O)N3CC[C@@H](CN)C3)c2s1 [Example Z597, ((S)-3-(Aminomethyl)pyrrolidin-1-yl)(2-(((S)-1-(5-fluoropyridin-3-yl)ethyl)amino)-6-methylthieno[3,2-d]pyrimidin-4-yl)methanone] | < 6.30 | – | – | 7.30 to 8.00 | – | 99.33 | > 8.00 | > 8.00
Cc1cc2nc(N[C@@H](C)c3cncc(F)c3)nc(C(=O)N3CC(NC(=O)[C@@H]4CCOC4)C3)c2s1 [Example Z598, (R)—N-(1-(2-(((S)-1-(5-Fluoropyridin-3-yl)ethyl)amino)-6-methylthieno[3,2-d]pyrimidine-4-carbonyl)azetidin-3-yl)tetrahydrofuran-3-carboxamide] | 7.30 to 8.00 | – | – | 7.30 to 8.00 | – | 0.68 | 6.30 to 7.00 | < 6.30
(S)—N-((6-methoxypyridin-2-yl)methyl)-6-methyl-2-((1-(pyridin-2-yl)ethyl)amino)thieno[3,2-d]pyrimidine-4-carboxamide [Example Z464] | 6.30 to 7.00 | – | – | > 8.00 | – | 19.50 | 7.00 to 7.30 | < 6.30
